ChEMBL document CHEMBL1201862, “PubChem BioAssay data set” (2004)
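Dose response: 5 concentrations. Exposure: 48 h. Format: 96-well plates. Endpoint: linear interpolation; highest concentration if not reached. Here, GI50 denotes the concentration required for 50% inhibition of growth.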 Activity calls are given as the source filed them. Rule as the data show it: active = GI50 up to about 1.1 µM and inactive = higher.

Tests used:
Test in all cases: NCI-60 cell line screen, 48 h
[1] = test system: 786-0
[2] = test system: A498
[3] = test system: A549
[4] = test system: ACHN
[5] = test system: BT-549
[6] = test system: CAKI-1
[7] = test system: COLO 205
[8] = test system: DU-145
[9] = test system: EKVX
[10] = test system: HCC 2998
[11] = test system: HCT-116
[12] = test system: HCT-15
[13] = test system: HL-60
[14] = test system: HOP-62
[15] = test system: HOP-92
[16] = test system: HT-29
[17] = test system: Hs-578T
[18] = test system: IGROV-1
[19] = test system: K562
[20] = test system: KM12
[21] = test system: LOX IMVI
[22] = test system: M14
[23] = test system: MCF7
[24] = test system: MDA-MB-231
[25] = test system: MDA-MB-435
[26] = test system: MDA-N
[27] = test system: MOLT-4
[28] = test system: NCI-H226
[29] = test system: NCI-H23
[30] = test system: NCI-H460
[31] = test system: NCI-H522
[32] = test system: NCI/ADR-RES
[33] = test system: OVCAR-3
[34] = test system: OVCAR-4
[35] = test system: OVCAR-5
[36] = test system: OVCAR-8
[37] = test system: PC-3
[38] = test system: RPMI-8226
[39] = test system: RXF 393
[40] = test system: SF-268
[41] = test system: SF-295
[42] = test system: SF-539
[43] = test system: SK-MEL-28
[44] = test system: SK-MEL-2
[45] = test system: SK-MEL-5
[46] = test system: SK-OV-3
[47] = test system: SN12C
[48] = test system: SNB-75
[49] = test system: SR
[50] = test system: SW-620
[51] = test system: T47D
[52] = test system: TK-10
[53] = test system: U-251
[54] = test system: UACC-257
[55] = test system: UACC-62
[56] = test system: UO-31
[57] = test system: CCRF-CEM
[58] = test system: Malme-3M
[59] = test system: SNB-19

`C/C=C(\C)C(=O)OC1CC(OC(C)=O)C2(C(=O)OC)COC3C2C1(C)C1C2(C(=O)OC)OCC1(C3O)C1(O)C3CC(C4(O)C=COC4O3)C1(C)O2` (centres undefined) was tested, and the GI50 [1] was > 100 µM (inactive), the GI50 [2] was > 100 µM (inactive) and the GI50 [3] was > 100 µM (inactive). For the same compound, the GI50 [4] was > 100 µM (inactive), the GI50 [5] was > 100 µM (inactive) and the GI50 [6] was > 100 µM (inactive). For the same compound, the GI50 [7] was > 100 µM (inactive), the GI50 [8] was > 100 µM (inactive) and the GI50 [9] was > 100 µM (inactive). The GI50 [10] was 62.5 µM (inactive), the GI50 [11] was > 100 µM (inactive) and the GI50 [12] was greater than 100 µM. The GI50 [13] was 92 µM (inactive), the GI50 [14] was > 100 µM (inactive) and the GI50 [15] was > 100 µM (inactive). The GI50 [16] was > 100 µM (inactive), the GI50 [17] was > 100 µM (inactive) and the GI50 [18] was > 100 µM (inactive). For the same compound, the GI50 [19] was > 100 µM (inactive), the GI50 [20] was > 100 µM (inactive) and the GI50 [21] was > 100 µM (inactive). The GI50 [22] was > 100 µM (inactive), the GI50 [23] was > 100 µM (inactive) and the GI50 [24] was > 100 µM (inactive). The GI50 [25] was 40.8 µM (inactive), the GI50 [26] was 34.4 µM (inactive) and the GI50 [27] was > 100 µM (inactive). The GI50 [28] was > 100 µM (inactive), the GI50 [29] was > 100 µM (inactive) and the GI50 [30] was > 100 µM (inactive). For the same compound, the GI50 [31] was > 100 µM (inactive), the GI50 [32] was > 100 µM (inactive) and the GI50 [33] was > 100 µM (inactive). The GI50 [34] was > 100 µM (inactive), the GI50 [35] was > 100 µM (inactive) and the GI50 [36] was > 100 µM (inactive). The GI50 [37] was > 100 µM (inactive), the GI50 [38] was > 100 µM (inactive) and the GI50 [39] was > 100 µM (inactive). The GI50 [40] was > 100 µM (inactive), the GI50 [41] was > 100 µM (inactive) and the GI50 [42] was > 100 µM (inactive). For the same compound, the GI50 [43] was > 100 µM (inactive), the GI50 [44] was > 100 µM (inactive) and the GI50 [45] was > 100 µM (inactive). For the same compound, the GI50 [46] was > 100 µM (inactive), the GI50 [47] was > 100 µM (inactive) and the GI50 [48] was > 100 µM (inactive). The GI50 [49] was > 100 µM (inactive), the GI50 [50] was > 100 µM (inactive) and the GI50 [51] was > 100 µM (inactive). For the same compound, the GI50 [52] was > 100 µM (inactive), the GI50 [53] was > 100 µM (inactive) and the GI50 [54] was > 100 µM (inactive). The GI50 [55] was > 100 µM (inactive) and the GI50 [56] was > 100 µM (inactive).
`CCOC(=O)N1N=C(/C(C)=N/OC)C(C)[S+]1[O-]` (centres undefined) was tested, and the GI50 [1] was > 100 µM (inactive), the GI50 [2] was > 100 µM (inactive) and the GI50 [3] was > 100 µM (inactive). For the same compound, the GI50 [4] was > 100 µM (inactive), the GI50 [5] was > 100 µM (inactive) and the GI50 [6] was > 100 µM (inactive). For the same compound, the GI50 [57] was > 100 µM (inactive), the GI50 [7] was > 100 µM (inactive) and the GI50 [8] was > 100 µM (inactive). For the same compound, the GI50 [9] was > 100 µM (inactive), the GI50 [10] was > 100 µM (inactive) and the GI50 [11] was > 100 µM (inactive). The GI50 [12] was greater than 100 µM, the GI50 [13] was > 100 µM (inactive) and the GI50 [14] was > 100 µM (inactive). For the same compound, the GI50 [15] was > 100 µM (inactive), the GI50 [16] was > 100 µM (inactive) and the GI50 [17] was > 100 µM (inactive). For the same compound, the GI50 [18] was > 100 µM (inactive), the GI50 [19] was > 100 µM (inactive) and the GI50 [20] was > 100 µM (inactive). For the same compound, the GI50 [22] was > 100 µM (inactive), the GI50 [23] was > 100 µM (inactive) and the GI50 [24] was > 100 µM (inactive). For the same compound, the GI50 [25] was > 100 µM (inactive), the GI50 [26] was > 100 µM (inactive) and the GI50 [27] was > 100 µM (inactive). The GI50 [58] was > 100 µM (inactive), the GI50 [28] was > 100 µM (inactive) and the GI50 [29] was > 100 µM (inactive). The GI50 [30] was 57.7 µM (inactive), the GI50 [31] was > 100 µM (inactive) and the GI50 [32] was > 100 µM (inactive). For the same compound, the GI50 [33] was > 100 µM (inactive), the GI50 [34] was > 100 µM (inactive) and the GI50 [35] was > 100 µM (inactive). For the same compound, the GI50 [36] was > 100 µM (inactive), the GI50 [37] was > 100 µM (inactive) and the GI50 [38] was > 100 µM (inactive). For the same compound, the GI50 [39] was > 100 µM (inactive), the GI50 [40] was > 100 µM (inactive) and the GI50 [41] was > 100 µM (inactive). The GI50 [42] was > 100 µM (inactive), the GI50 [43] was > 100 µM (inactive) and the GI50 [44] was > 100 µM (inactive). The GI50 [45] was > 100 µM (inactive), the GI50 [46] was > 100 µM (inactive) and the GI50 [47] was > 100 µM (inactive). For the same compound, the GI50 [59] was > 100 µM (inactive), the GI50 [48] was 85.3 µM (inactive) and the GI50 [49] was > 100 µM (inactive). The GI50 [50] was > 100 µM (inactive), the GI50 [51] was > 100 µM (inactive) and the GI50 [52] was > 100 µM (inactive). For the same compound, the GI50 [53] was > 100 µM (inactive), the GI50 [54] was > 100 µM (inactive) and the GI50 [55] was > 100 µM (inactive). The GI50 [56] was > 100 µM (inactive).
